# In US4499089A, “2-Alkylthio-1-aminoalkyl-2-pyrroline-3-carbonitriles, compositions and use” (Warner-Lambert Company, priority 1983, dated 1985):
# Structures can show the parent of a compound that is named as a salt. Where two headings read alike, the source gives them in different places.
# How the values were obtained:
# [1] = test system: thrombocyte aggregation (platelet-rich plasma); assay: Collagen-induced thrombocyte aggregation in vitro (rats); type: cell-based, rat; conditions: for IC50: rat PRP, collagen-induced, 3 min incubation, end concentration lowering amplitude by 50%, read-out: C50-value (arith. M. + S.D.)
# Description: Collagen-Induced Thrombocyte Aggregation In Vitro (Rats) Method: The test was carried out according to the method of BORN (Nature, 194, 927-929, 1962). As blood donors, there served male Sprague-Dawley SIV 50 rats with a body weight of 200 g. The blood sampling took place, under ether narcosis, from the retroorbital venous complex. Nine parts of blood were mixed with one part of 3.8% w/v tri-Na-citrate solution. After low speed centrifuging of the mixture at room temperature, the platelet-rich plasma (PRP, corresponding to erythrocyte-free supernatant) was removed and adjusted to a standard concentration of […]. As measurement instrument, there served an universal aggregometer (Braun, Melsungen), coupled with an Eppendorf photome[…] (Netheler and Hinz, Hamburg). In the investigation, 700 μl amounts of PRP were equilibrated in the aggregometer for five minutes at 37° C. and then mixed with 58 μl of the test substance solution or of a 0.9% NaCl solution (corresponding to the blank). After an incubation time of three minutes, the addition of 35 μl collagen suspension (collagen reagent HORM®, Hormon Chemie, Munchen) initiated the aggregation. A compensation recorder registered, in the following 15 minutes, the change of the transmission. The largest change of the transmission occurring in the period of time was called the amplitude (Amp) of the aggregation curve. Aggregation-inhibiting substances bring about a reduction of this amplitude; the inhibitory action (E) of a substance is calculated according to the following formula: E=[(Amp)blank -[…] ]×100(%) Dosage-action curves are produced on the basis of which their C50 values could be calculated. The C50 value gives the end concentration of a substance in the test system which leads to a lowering of the amplitude by 50%.
# [2] = test system: carrageenin edema of the rat (paw edema); assay: Antiphlogistic action on carrageenin edema of rats; type: in vivo; conditions: 3 h after carrageenin
# Description: Investigation of the Antiphlogistic Action on Carrageenin Edema of Rats Method: Experimental animals were male rats (SIV 50), fasted for 20 hours, with a body weight of 110-160 g. Water was available ad libitum. After determination of the initial value of the paw volume of the right hind extremity, the test substances were administered intragastrally as suspension in 0.8% Methocel. Ten animals were used per dosage. The volume of administration amounted to 20 ml/kg body weight. The paw volume was measured plethysmometrically. Sixty minutes after intragastral administration of the test substances, 0.1 ml of a 1% carrageenin solution was injected subplanatary into the right hind paw. One and three hours after injection of the carrageenin, the paw volume of the oedematous paw was measured. The increase of the paw volume of the substance-treated animals after three hours was compared with that in the case of the control animals and the inhibition of the paw edema by the test substance was calculated as a percentage thereof.
# [3] = Acute toxicity in mice, seven day values; type: in vivo; conditions: mouse, in vivo, po, male NMRI mice, intragastrally
# Description: (§1) Investigation of the Acute Toxicity Method:
# (§2) The determination of the acute toxicity was carried out on male mice (NMRI) with a body weight of 18 to 23 g. All experimental animals were fasted for 20 hours before commencement of the investigation. Water was available ad libitum. Four animals belonged to each dosage group. The dosage sequence was logarithmic. The test substances were administered either in the form of aqueous solutions or as suspensions in 0.8% Methocel. The administered volumes amounted, in the case of subcutaneous administration, to 10 ml/kg body weight, in the case of intragastral administration to 20 ml/kg body weight.
# [4] = test system: yeast fever of the rat; assay: Antipyretic action on yeast fever of the rat; type: in vivo; conditions: 12% yeast 20 ml/kg SC, rectal
# Description: Investigation of the Antipyretic Action on Yeast Fever of the Rat Method: Experimental animals were male rats (SIV 50), fasted for 20 hours, with a body weight of 115-165 g. For the production of an elevated body temperature, the animals received, 18 hours before administration of the test substances, 20 ml/kg body of a 12% dry yeast suspension subcutaneously in two to three depots. A control group received the corresponding volume of physiological NaCl solution injected subcutaneously. Ten animals were used per dosage. After three preliminary measurementds of the body temperature on the experimental day in 30-minute intervals, the test substance was administered intragastrally to the animals treated with yeast. The volume of administration amounted to 20 ml/kg body weight. A second control group treated with yeast, as well as the control group treated the previous day with physiological NaCl solution, received the corresponding vehicle instead of test substance. The body temperature of the experimental animals was measured rectally by means of thermocouple sensor 30, 60 minutes and then, in each case, hourly up to a total of five hours after substance administration.
# [5] = test system: stomach ulcer of the rat induced by indomethacin; assay: Ulcer-protective action on stomach ulcer of the rat induced by indomethacin; type: in vivo; conditions: for Ulcer Inhibition in %: indomethacin 40 mg/kg
# Description: Investigation of the Ulcer-Protective Action on Stomach Ulcer of the Rat Induced by Indomethacin. Method: Experimental animals were male rats (SIV 50), fasted for 20 hours, with a body weight of 150-200 g. Water was available ad libitum. 40 mg/kg indomethacin and the substance to be tested, as suspension in 0.8% Methocel, were simultaneously administered to the animals intragastrally. The control animals only received the corresponding dosage of indomethacin. Ten animals were used per experimental group. The administration volume amount to 10 ml/kg body weight. The animals were sacrificed five hours after administration. After removal of the stomachs and opening of the curvatura major, these were investigated with a stereo magnifying glass for the presence of ulcers. The assessment of the ulcers took place according to a point scheme proposed by M. Chaumontet et al. (Arzneim.-Forsch., 28, 2119, 1978). The ulcer index was calculated herefrom. The ulcer index of the animals treated with indomethacin and test substance was compared with that of the control animals only treated with indomethacin and the ulcer inhibition calculated therefrom in percent.
# [6] = test system: male mice (NMRI); assay: Acute toxicity in mice, seven day values; type: in vivo; conditions: intragastrally, 10080 min
# Description: as §1, §2
compound,measurement,setting,value
"CCSC1=C(C#N)C(c2ccccc2)(c2ccccc2)C(=O)N1CCCN(CC)CC [Compound 16, 1-(3-diethylaminopropyl)-2-ethylthio-5-oxo-4,4-diphenyl-2-pyrroline-3-carbonitrile hydrochloride]",IC50,[1]; 0.05 h,140 ± 60 µM
"CCSC1=C(C#N)C(c2ccccc2)(c2ccccc2)C(=O)N1CCCN [Compound 17a, 1-(3-Aminopropyl)-2-ethylthio-5-oxo-4,4-diphenyl-2-pyrroline-3-carbonitrilehydrochloride]",IC50,[1]; 0.05 h,60 µM
same,aggregation-inhibiting properties,[1]; in words,the most effective representative
"CCSC1=C(C#N)C(c2ccccc2)(c2ccccc2)C(=O)N1CCN1CCCCC1.Cl [Compound 1, 2-Ethylthio-5-oxo-4,4-diphenyl-1-(2-piperidinoethyl)-2-pyrroline-3-carbonitrile hydrochloride]",Inhibition of Paw Edema in %,[2]; 125 mg/kg intragastrally,36%
same,LD50 at 168 h,[3],1600 mg/kg
"CSC1=C(C#N)C(c2ccc(N(C)C)cc2)(c2cccnc2)C(=O)N1CCCN(C)C (centres unmarked) [Compound 21, 4-(4-Dimethylaminophenyl)-1-(3-dimethylaminopropyl)-2-methylthio-5-oxo-4-(3-pyridyl)-2-pyrroline-3-carbonitrile]",IC50,[1]; 0.05 h,160 ± 20 µM
same,LD50 at 168 h,[3],1200 mg/kg
"CSC1=C(C#N)C(c2ccccc2)(c2ccccc2)C(=O)N1CCCN1CCCCC1 [Compound 12, 2-methylthio-5-oxo-4,4-diphenyl-1-(3-piperidinopropyl)-2-pyrroline-3-carbonitrile]",IC50,[1]; 0.05 h,150 ± 20 µM
same,LD50 at 168 h,[3],> 1600 mg/kg
"CCSC1=C(C#N)C(c2ccccc2)(c2ccccc2)C(=O)N1CCCN1CCCCC1.O=C(O)C(=O)O [Compound 15, 2-ethylthio-5-oxo-4,4-diphenyl-1-(3-piperidinopropyl)-2-pyrroline-3-carbonitrile oxalate]",Inhibition of Paw Edema in %,[2]; 150 mg/kg intragastrally,39%
same,LD50 at 168 h,[3],700 mg/kg
same,"body temperature, 60",[4]; 60 minutes after 150 mg/kg IG,36.6 °C
same,"body temperature, 120",[4]; 120 minutes after 150 mg/kg IG,35.8 °C
same,"body temperature, 180",[4]; 180 minutes after 150 mg/kg IG,35.9 °C
same,"body temperature, 240",[4]; 240 minutes after 150 mg/kg IG,36.4 °C
same,"body temperature, 300",[4]; 300 minutes after 150 mg/kg IG,37 °C
same,Ulcer Inhibition in %,[5]; 150 mg/kg intragastrally,29%
"CCCSC1=C(C#N)C(c2ccccc2)(c2ccccc2)C(=O)N1CCN(CC)CC [Compound 9, 1-(2-Diethylaminoethyl)-5-oxo-4,4-diphenyl-2-propylthio-2-pyrroline-3-carbonitrile]",Ulcer Inhibition in %,[5]; 250 mg/kg intragastrally,29%
"CCSC1=C(C#N)C(c2ccccc2)(c2ccccc2)C(=O)N1CCCN1CCOCC1 [Compound 5, 2-ethylthio-1-(3-morpholinopropyl)-5-oxo-4,4-diphenyl-2-pyrroline-3-carbonitrile]",Inhibition of Paw Edema in %,[2]; 37.5 mg/kg intragastrally,22%
same,Inhibition of Paw Edema in %,[2]; 75 mg/kg intragastrally,45%
same,LD50 at 168 h,[3],> 1600 mg/kg
same,Ulcer Inhibition in %,[5]; 100 mg/kg intragastrally,52%
same,ulcer-protective action,[5]; in words,the most effective representative
"CCSC1=C(C#N)C(c2ccccc2)(c2ccccc2)C(=O)N1CCCN(C)C [Compound 3, 2-ethylthio-1-(3-dimethylaminopropyl)-5-oxo-4,4-diphenyl-2-pyrroline-3-carbonitrile hydrochloride]",IC50,[1]; 0.05 h,150 ± 40 µM
"CC(C)SC1=C(C#N)C(c2ccccc2)(c2ccccc2)C(=O)N1CCCN(C)C [Compound 8, 2-Isopropylthio-1-(3-dimethylaminopropyl)-5-oxo-4,4-diphenyl-2-pyrroline-3-carbonitrile]",IC50,[1]; 0.05 h,270 ± 50 µM
same,LD50 at 168 h,[3],1400 mg/kg
"1-(2-dimethylaminopropyl)-2-methylthio-5-oxo-4,4-diphenyl-2-pyrroline-3-carbonitrile [Compound 6]",Inhibition of Paw Edema in %,[2]; 125 mg/kg intragastrally,36%
same,IC50,[1],190 ± 40 µM
same,LD50,[6],1200 mg/kg
same,"body temperature, 30",[4]; 30 minutes after 250 mg/kg IG,37 °C
same,"body temperature, 60",[4]; 60 minutes after 250 mg/kg IG,36 °C
same,"body temperature, 120",[4]; 120 minutes after 250 mg/kg IG,35.2 °C
same,"body temperature, 180",[4]; 180 minutes after 250 mg/kg IG,34.7 °C
same,"body temperature, 240",[4]; 240 minutes after 250 mg/kg IG,35.1 °C
same,"body temperature, 300",[4]; 300 minutes after 250 mg/kg IG,35.6 °C
